Consider 3 substances from patent US6342225B1, “Pharmaceutical active conjugates” (Deutshces Wollforschungsinstitut, priority 1993, dated 2002).

For test [1], the target named is T1, thyroxine binding globulin (TBG) (Homo sapiens, UniProt P05543).
T1 sequence (P05543 21-415): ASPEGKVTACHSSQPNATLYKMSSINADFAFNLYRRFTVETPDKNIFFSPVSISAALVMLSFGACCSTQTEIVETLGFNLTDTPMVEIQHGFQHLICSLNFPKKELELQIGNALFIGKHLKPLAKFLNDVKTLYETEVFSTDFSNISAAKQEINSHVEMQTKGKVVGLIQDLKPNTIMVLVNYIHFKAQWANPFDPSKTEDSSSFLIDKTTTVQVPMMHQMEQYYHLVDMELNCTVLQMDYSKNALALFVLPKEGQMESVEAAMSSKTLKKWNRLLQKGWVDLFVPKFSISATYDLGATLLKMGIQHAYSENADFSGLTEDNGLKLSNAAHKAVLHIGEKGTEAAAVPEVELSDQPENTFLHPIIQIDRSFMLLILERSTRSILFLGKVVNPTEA
In words: optical biosensor IAsys kinetic binding to immobilized TBG. The conditions noted are these: control, 500 μg/ml.
Protocol: The optical bio-sensor IAsys makes it possible to record biomolecular interactions in real time and thus kinetical studies.
The surface of the cuvette is covered with a carboxymethylated dextran matrix (CMD), to which the plasma protein TBG is immobilized.
Immobilization of TBG to the carboxymethylated matrix is detected via the change of the resonance angle.
For the kinetical studies the Thyroid-Insulin conjugate was injected into the microcuvette in dilution series of 200, 300, 400 and 500 μg/ml in HBS/Tween-buffer at 25° C. To test for reproducibility, all measurements were repeated 3 times.
As a control, native insulin was injected at high concentration (500 μg/ml). […] For further measurements the surface of the microcuvette was rinsed several times with buffer.
Determination of “on-rate” constants kon at various ligand concentrations CL allow kon to be plotted against CL according to equation (4). This gives the association rate constant kA from the slope and the dissociation rate constant kD at C2=O. It has, however, to be taken into account that the error of kD becomes too large when kD<0,01 s^−1 (IAsys, METHODS GUIDE).

In test [2] the test system is hepatic glucose output and peripheral uptake. The conditions noted are these: British Diabetic Association conference 1989; cited from earlier work.
The test system of test [3] is glucose production (Ra) and glucose disposal (Rd). The experiment in a line: glucose turnover during infusion with D-3H-3-glucose in anaesthetized beagles, euglycaemia maintained. Format: in vivo. The conditions noted are these: mean±SEM.
Protocol: Euglycaemia and glucose specific activity were maintained by variable infusion of D-glucose with D-^3H-3-glucose.
In each experiment insulin-like activity for Ra and Rd was calculated as the area between the basal values of each of these variables and subsequent values plotted graphically against time (AUC).

Consider “native insulin: native insulin injected at 500 μg/ml as control in the biosensor study”, for which the “association to immobilized TBG” value in test [1] was “association cannot be observed”.

For the substance “proinsulin: the zymogen which is cleaved to form the active hormone insulin”, the “hepatoselectivity (effect on hepatic glucose output versus peripheral uptake and utilisation)” value in test [2] is on record as “shows this hepatoslectivity to a smaller degree”.

As to insulin, in test [3], the “AUC for Ra (glucose production), area between basal and subsequent values against time” value is -431 ± 121 mg/kg; the “AUC for Rd (glucose disposal), area between basal and subsequent values against time” value worked out at 1142 ± 160 mg/kg.
